{"source": "patent US11629139B2", "about": "(priority 2017, dated 2023)", "key": {"[1]": {"conditions": "mouse, in vivo"}, "[2]": {"test_system": "vesicular stomatitis virus particles (VSV) pseudotyped with EboV Zaire GP", "assay": "microbe, parasite or virus in culture", "assay_type": "cell-based"}, "in vitro": {"assay": "in vitro", "conditions": "mouse, microsomes"}, "physchem": {"assay": "physchem", "conditions": "pH 7.4, aqueous buffer, kinetic from dmso stock"}, "[3]": {"conditions": "plasma"}, "[4]": {"conditions": "pH 7.4"}, "[5]": {"conditions": "mouse, microsomes"}}, "note": "Read-outs that look alike come from different tables or passages of the source."}
{"smiles": "Nc1ccc(Cl)cc1CN1CCN(C(=O)CNC(=O)C2CC23CCC(F)(F)CC3)CC1", "note": "(single isomer, unassigned; (-)) [(−)-1413]", "values": [{"measurement": "Cmax", "setting": "[1]; po, 50 mg/kg", "result": 19.5, "unit": "µM"}]}
{"smiles": "Nc1ccc(Cl)cc1CN1CCN(C(=O)CNC(=O)C2CC23CCC(F)(F)CC3)CC1", "note": "(stereo not shown) [Compound 1373, N-(2-(4-(2-Amino-5-chlorobenzyl)piperazin-1-yl)-2-oxoethyl)-6,6-difluorospiro[2.5]octane-1-carboxamide]", "values": [{"measurement": "IC50", "setting": "[2]; Vesicular stomatitis virus", "result": 100, "unit": "nM"}, {"measurement": "half-life", "setting": "in vitro; pH 7.4, T1/2(min)", "result": 1.3, "unit": "min"}]}
{"smiles": "[2H]C([2H])(c1cc(Cl)ccc1NCc1ccc(S(C)(=O)=O)cc1)N1CCN(C(=O)CNC(=O)C2CC23CCC(F)(F)CC3)CC1", "note": "(racemic) [(racemic)-1503]", "values": [{"measurement": "Concentration required to reduce cell viability by 50%", "setting": "cell viability", "result": "exceeded 10 μM"}]}
{"smiles": "Nc1ccc(Cl)cc1CN1CCN(C(=O)CNC(=O)CC2CCC(F)(F)CC2)CC1", "note": "[Compound 1343, N-(2-(4-(2-Amino-5-chlorobenzyl)piperazin-1-yl)-2-oxoethyl)-2-(4,4-difluorocyclohexyl)acetamide]", "values": [{"measurement": "IC50", "setting": "[2]; Vesicular stomatitis virus", "result": 320, "unit": "nM"}, {"measurement": "solubility kinetic", "setting": "physchem", "result": "> 100", "unit": "µM"}, {"measurement": "half-life", "setting": "in vitro; pH 7.4, MLM T½ (min)", "result": 9, "unit": "min"}, {"measurement": "half-life", "setting": "in vitro; pH 7.4, T1/2(min)", "result": 8.7, "unit": "min"}, {"measurement": "Mouse PPB (% bound)", "setting": "[3]", "result": 86.9, "unit": "%"}, {"measurement": "Sol", "setting": "[4]", "result": ">100", "unit": "mM"}]}
{"smiles": "[2H]C([2H])(c1cc(Cl)ccc1N)N1CCN(C(=O)CNC(=O)C2CC23CCC(F)(F)CC3)CC1", "note": "(stereo not shown) [Compound 1413, N-(2-(4-((2-amino-5-chlorophenyl)methyl-d2)piperazin-1-yl)-2-oxoethyl)-6,6-difluorospiro[2.5]octane-1-carboxamide]", "values": [{"measurement": "IC50", "setting": "[2]", "result": 130, "unit": "nM"}, {"measurement": "IC50", "setting": "[2]; Vesicular stomatitis virus", "result": 68, "unit": "nM"}, {"measurement": "solubility kinetic", "setting": "physchem", "result": "> 100", "unit": "µM"}, {"measurement": "T1/2 (min)", "setting": "[5]; pH 7.4", "result": "13/215 min"}, {"measurement": "half-life", "setting": "in vitro; pH 7.4, Microsome T1/2", "result": "1.4 to 2", "unit": "min"}, {"measurement": "half-life", "setting": "in vitro; pH 7.4, T1/2(min)", "result": 2, "unit": "min"}, {"measurement": "half-life", "setting": "in vitro; pH 7.4, T1/2 + ritonavir (min)", "result": 215, "unit": "min"}]}
{"smiles": "CS(=O)(=O)c1ccc(COc2ccc(Cl)cc2CN2CCN(C(=O)CNC(=O)C3CC34CCC(F)(F)CC4)CC2)cc1", "note": "(racemic) [(racemic)-1476]", "values": [{"measurement": "Concentration required to reduce cell viability by 50%", "setting": "cell viability", "result": "exceeded 10 μM"}]}
{"smiles": "O=C(CC12CC3(F)CC(F)(CC(F)(C3)C1)C2)NCC(=O)N1CCN(Cc2ccccc2OCc2ccc(Br)cc2)CC1", "note": "[Compound 1254]", "values": [{"measurement": "IC50", "setting": "[2]; Vesicular stomatitis virus", "result": 200, "unit": "nM"}, {"measurement": "half-life", "setting": "in vitro; pH 7.4, MLM T½ (min)", "result": 1, "unit": "min"}]}
{"smiles": "CS(=O)(=O)c1ccc(CNc2ccc(Cl)cc2CN2CCN(C(=O)CNC(=O)C3CC34CCC(F)(F)CC4)CC2)cc1", "note": "(single isomer, unassigned; (-)) [(−)-1503]", "values": [{"measurement": "Cmax", "setting": "[1]; po, 50 mg/kg", "result": 7.4, "unit": "µM"}]}
{"smiles": "COC(=O)c1ccc(COc2ccccc2CN2CCN(C(=O)CNC(=O)CC3(C)CCCCC3)CC2)cc1", "note": "[Compound 1311, Methyl 4-((2-((4-((2-(1-methylcyclohexyl)acetyl)glycyl)piperazin-1-yl)methyl)phenoxy)methyl)benzoate]", "values": [{"measurement": "IC50", "setting": "[2]; Vesicular stomatitis virus", "result": 80, "unit": "nM"}]}
{"smiles": "COC(=O)c1ccc(COc2ccccc2CN2CCN(C(=O)CNC(=O)CC(C)(C)C(F)(F)F)CC2)cc1", "note": "[Compound 1278, Methyl 4-((2-((4-((4,4,4-trifluoro-3,3-dimethylbutanoyl)glycyl)piperazin-1-yl)methyl)phenoxy)methyl)benzoate]", "values": [{"measurement": "IC50", "setting": "[2]; Vesicular stomatitis virus", "result": "> 2000", "unit": "nM"}]}
{"smiles": "O=C(NCC(=O)N1CCN(Cc2cc(Cl)cc(F)c2O)CC1)C1CC12CCC(F)(F)CC2", "note": "(stereo not shown) [Compound 1404, N-(2-(4-(5-chloro-3-fluoro-2-hydroxybenzyl)piperazin-1-yl)-2-oxoethyl)-6,6-difluorospiro[2.5]octane-1-carboxamide]", "values": [{"measurement": "IC50", "setting": "[2]; Vesicular stomatitis virus", "result": 630, "unit": "nM"}]}
{"smiles": "O=C(CC12CC3CC(CC(C3)C1)C2)NCC(=O)N1CCN(Cc2c(Cl)cccc2Cl)CC1", "note": "[Compound 1363, 2-((1R,3R,5S)-Adamantan-1-yl)-N-(2-(4-(2,6-dichlorobenzyl)piperazin-1-yl)-2-oxoethyl)acetamide]", "values": [{"measurement": "IC50", "setting": "[2]; Vesicular stomatitis virus", "result": 1000, "unit": "nM"}]}
{"smiles": "O=C(CC12CC3CC(CC(C3)C1)C2)NCC(=O)N1CCN(Cc2cc(Cl)ccc2F)CC1", "note": "[Compound 1305, 2-((1R,3R,5S)-Adamantan-1-yl)-N-(2-(4-(5-chloro-2-fluorobenzyl)piperazin-1-yl)-2-oxoethyl)acetamide]", "values": [{"measurement": "IC50", "setting": "[2]; Vesicular stomatitis virus", "result": 360, "unit": "nM"}]}
{"smiles": "[2H]C([2H])(c1cc(Cl)ccc1NCc1cocn1)N1CCN(C(=O)CNC(=O)[C@@H]2CC23CCC(F)(F)CC3)CC1", "note": "[Compound 1583]", "values": [{"measurement": "IC50", "setting": "[2]; Vesicular stomatitis virus", "result": 150, "unit": "nM"}]}
{"smiles": "COC(=O)c1ccc(COc2ccccc2CN2CCN(C(=O)CNC(=O)CC3CC(F)(F)C3)CC2)cc1", "note": "[Compound 1315, Methyl 4-((2-((4-((2-(3,3-difluorocyclobutyl)acetyl)glycyl)piperazin-1-yl)methyl)phenoxy)methyl)benzoate]", "values": [{"measurement": "IC50", "setting": "[2]; Vesicular stomatitis virus", "result": 400, "unit": "nM"}]}
{"smiles": "O=C(CC12CC3CC(CC(C3)C1)C2)NCC(=O)N1CCN(Cc2cc(Br)ccc2F)CC1", "note": "[Compound 1337, 2-((1R,3R,5S)-Adamantan-1-yl)-N-(2-(4-(5-bromo-2-fluorobenzyl)piperazin-1-yl)-2-oxoethyl)acetamide]", "values": [{"measurement": "IC50", "setting": "[2]; Vesicular stomatitis virus", "result": 1200, "unit": "nM"}]}
{"smiles": "O=C(CC1CCC(F)(F)CC1)NCC(=O)N1CCN(Cc2cc(Cl)ccc2NS(=O)(=O)C2CC2)CC1", "note": "[Compound 1379, N-(2-(4-(5-Chloro-2-(cyclopropanesulfonamido)benzyl)piperazin-1-yl)-2-oxoethyl)-2-(4,4-difluorocyclohexyl)acetamide]", "values": [{"measurement": "IC50", "setting": "[2]; Vesicular stomatitis virus", "result": "~2200", "unit": "nM"}]}
{"smiles": "O=C(CC1CCC(F)(F)CC1)NCC(=O)N1CCN(Cc2cc(Cl)cc(F)c2O)CC1", "note": "[Compound 1402, N-(2-(4-(5-Chloro-3-fluoro-2-hydroxybenzyl)piperazin-1-yl)-2-oxoethyl)-2-(4,4-difluorocyclohexyl)acetamide]", "values": [{"measurement": "IC50", "setting": "[2]; Vesicular stomatitis virus", "result": 2900, "unit": "nM"}]}
{"smiles": "O=C(Nc1ccccc1)Nc1ncc(Cl)cc1CN1CCN(C(=O)CNC(=O)C2CC23CCC(F)(F)CC3)CC1", "note": "(stereo not shown) [Compound 1392, N-(2-(4-((5-Chloro-2-(3-phenylureido)pyridin-3-yl)methyl)piperazin-1-yl)-2-oxoethyl)-6,6-difluorospiro[2.5]octane-1-carboxamide]", "values": [{"measurement": "IC50", "setting": "[2]; Vesicular stomatitis virus", "result": 1000, "unit": "nM"}]}
{"smiles": "CN(C)C(=O)c1ccc(COc2ccccc2CN2CCN(C(=O)CNC(=O)CC34CC5CC(CC(C5)C3)C4)CC2)cc1", "note": "[Compound 1802]", "values": [{"measurement": "IC50", "setting": "[2]; Vesicular stomatitis virus", "result": 3300, "unit": "nM"}]}
{"smiles": "CS(=O)(=O)c1ccc(COc2ccc(Cl)cc2CN2CCN(C(=O)CNC(=O)C3CC34CCC(F)(F)CC4)CC2)cc1", "note": "(single isomer, unassigned; (-)) [(−)-1476]", "values": [{"measurement": "MLM, T½ (min) (ritonavir 3 μM)", "setting": "[5]", "result": ">120", "unit": "min"}, {"measurement": "Mouse PPB (% bound)", "setting": "[3]", "result": 97.6, "unit": "%"}, {"measurement": "Kinetic solubility", "setting": "[4]", "result": 10, "unit": "µM"}, {"measurement": "C@12 hr", "setting": "[1]", "result": 4.7, "unit": "µM"}, {"measurement": "Cl_obs", "setting": "[1]", "result": 11.9, "unit": "mL/min/kg"}, {"measurement": "Plasma concentration after 12 hours relative to in vitro IC50 against rVSV EBOV infection in 50% human serum", "setting": "[1]", "result": 50, "unit": "fold"}, {"measurement": "AUClast", "setting": "[1]; po, 50 mg/kg", "result": 116.4, "unit": "µM·h"}, {"measurement": "Cmax", "setting": "[1]; po, 50 mg/kg", "result": 10.4, "unit": "µM"}, {"measurement": "T1/2", "setting": "[1]; po, 50 mg/kg", "result": 132, "unit": "min"}, {"measurement": "Tmax", "setting": "[1]; po, 50 mg/kg", "result": 240, "unit": "min"}]}
{"smiles": "O=C(CC12CC3CC(CC(C3)C1)C2)NCC(=O)N1CCN(Cc2cc(F)cc(F)c2O)CC1", "note": "[Compound 1325, 2-((1R,3R,5S)-Adamantan-1-yl)-N-(2-(4-(3,5-difluoro-2-hydroxybenzyl)piperazin-1-yl)-2-oxoethyl)acetamide]", "values": [{"measurement": "IC50", "setting": "[2]; Vesicular stomatitis virus", "result": 1000, "unit": "nM"}]}
{"smiles": "COC(=O)c1ccc(COc2ccccc2CN2CCN(C(=O)CNC(=O)C3CC3(C)C)CC2)cc1", "note": "(stereo not shown) [Compound 1317, Methyl 4-((2-((4-((2,2-dimethylcyclopropane-1-carbonyl)glycyl)piperazin-1-yl)methyl)phenoxy)methyl)benzoate]", "values": [{"measurement": "IC50", "setting": "[2]; Vesicular stomatitis virus", "result": 400, "unit": "nM"}]}
{"smiles": "[2H]C([2H])(c1cc(Cl)ccc1NCc1ccc(C(=O)OC)nc1)N1CCN(C(=O)CNC(=O)C2CC23CCC(F)(F)CC3)CC1", "note": "(stereo not shown) [Compound 1549, 5-{[4-Chloro-2-(4-{2-[(6,6-difluoro-spiro[2.5]octane-1-carbonyl)-amino]-acetyl}-piperazin-1-yl-di-deutero-methyl)-phenylamino]-methyl}-pyridine-2-carboxylic acid methyl ester]", "values": [{"measurement": "IC50", "setting": "[2]; Vesicular stomatitis virus", "result": 50, "unit": "nM"}]}
